# From patent publication US9394446B2, “Method for recovering Ru complex dye from used dye solution” (Tanaka Kikinzoku Kogyo K.K., priority 2012, dated 2016)
# Test: Mixing/dissolving behaviour of DMSO in ethers (inventors' observation)
# Format: physicochemical
# Conditions: not given
row,"mixing or dissolving in ethers (diethyl ether), in words",SMILES
1,hardly mixed or dissolved,"C[S+](C)[O-] [DMSO, dimethyl sulfoxide]"

# Test: Preliminary test: dissolving property of dye solution components in ether-based solvents, alkane-based solvents and water
# Conditions: 1 mg (solvents: 1 mL) in 1 mL dibutyl ether, 25° C.
row,SMILES,dissolving property in Dibutyl ether
1,"CC#N [Acetonitrile, acetonitrile]",⊙ (those dissolved at 5 g/L or more and those fully miscible with a solvent for dye solution were labeled as “⊙” with excellent dissolving property)
2,"C[C@H](CCC(=O)O)[C@H]1CC[C@H]2[C@@H]3[C@H](O)C[C@@H]4C[C@H](O)CC[C@]4(C)[C@H]3CC[C@]12C [CDCA, chenodeoxychloic acid]",◯ (those having solubility of 0.05 g/L or more but less than 5 g/L and those miscible with a solvent for dye solution were labeled as “∘” with good dissolving property)
3,CCCCOc1ccc(-c2ccc(N(c3ccc(-c4ccc(C=C(C#N)C(=O)O)s4)cc3)c3ccc(-c4ccc(OCCCC)cc4OCCCC)cc3)cc2)c(OCCCC)c1 [D35],◯ (those having solubility of 0.05 g/L or more but less than 5 g/L and those miscible with a solvent for dye solution were labeled as “∘” with good dissolving property)
4,"CC(C)(C)CCP(=O)(O)CCC(C)(C)C [DINHOP, bis-(3,3-dimethyl-butyl)-phosphinic acid]",⊙ (those dissolved at 5 g/L or more and those fully miscible with a solvent for dye solution were labeled as “⊙” with excellent dissolving property)
5,"CCO [Ethanol, ethanol]",⊙ (those dissolved at 5 g/L or more and those fully miscible with a solvent for dye solution were labeled as “⊙” with excellent dissolving property)

# Same assay, conditions: 1 mg (solvents: 1 mL) in 1 mL diethyl ether, 25° C.
row,SMILES,dissolving property in Diethyl ether
1,"CC#N [Acetonitrile, acetonitrile]",⊙ (those dissolved at 5 g/L or more and those fully miscible with a solvent for dye solution were labeled as “⊙” with excellent dissolving property)
2,"C[C@H](CCC(=O)O)[C@H]1CC[C@H]2[C@@H]3[C@H](O)C[C@@H]4C[C@H](O)CC[C@]4(C)[C@H]3CC[C@]12C [CDCA, chenodeoxychloic acid]",⊙ (those dissolved at 5 g/L or more and those fully miscible with a solvent for dye solution were labeled as “⊙” with excellent dissolving property)
3,CCCCOc1ccc(-c2ccc(N(c3ccc(-c4ccc(C=C(C#N)C(=O)O)s4)cc3)c3ccc(-c4ccc(OCCCC)cc4OCCCC)cc3)cc2)c(OCCCC)c1 [D35],⊙ (those dissolved at 5 g/L or more and those fully miscible with a solvent for dye solution were labeled as “⊙” with excellent dissolving property)
4,"CC(C)(C)CCP(=O)(O)CCC(C)(C)C [DINHOP, bis-(3,3-dimethyl-butyl)-phosphinic acid]",⊙ (those dissolved at 5 g/L or more and those fully miscible with a solvent for dye solution were labeled as “⊙” with excellent dissolving property)
5,"CCO [Ethanol, ethanol]",⊙ (those dissolved at 5 g/L or more and those fully miscible with a solvent for dye solution were labeled as “⊙” with excellent dissolving property)

# Same assay, conditions: 1 mg (solvents: 1 mL) in 1 mL diisopropyl ether, 25° C.
row,SMILES,dissolving property in Diisopropyl ether
1,"CC#N [Acetonitrile, acetonitrile]",⊙ (those dissolved at 5 g/L or more and those fully miscible with a solvent for dye solution were labeled as “⊙” with excellent dissolving property)
2,"C[C@H](CCC(=O)O)[C@H]1CC[C@H]2[C@@H]3[C@H](O)C[C@@H]4C[C@H](O)CC[C@]4(C)[C@H]3CC[C@]12C [CDCA, chenodeoxychloic acid]",⊙ (those dissolved at 5 g/L or more and those fully miscible with a solvent for dye solution were labeled as “⊙” with excellent dissolving property)
3,CCCCOc1ccc(-c2ccc(N(c3ccc(-c4ccc(C=C(C#N)C(=O)O)s4)cc3)c3ccc(-c4ccc(OCCCC)cc4OCCCC)cc3)cc2)c(OCCCC)c1 [D35],⊙ (those dissolved at 5 g/L or more and those fully miscible with a solvent for dye solution were labeled as “⊙” with excellent dissolving property)
4,"CC(C)(C)CCP(=O)(O)CCC(C)(C)C [DINHOP, bis-(3,3-dimethyl-butyl)-phosphinic acid]",⊙ (those dissolved at 5 g/L or more and those fully miscible with a solvent for dye solution were labeled as “⊙” with excellent dissolving property)
5,"CCO [Ethanol, ethanol]",⊙ (those dissolved at 5 g/L or more and those fully miscible with a solvent for dye solution were labeled as “⊙” with excellent dissolving property)

# Same assay, conditions: 1 mg (solvents: 1 mL) in 1 mL heptane, 25° C.
row,SMILES,dissolving property in Heptane
1,"CC#N [Acetonitrile, acetonitrile]",⊙ (those dissolved at 5 g/L or more and those fully miscible with a solvent for dye solution were labeled as “⊙” with excellent dissolving property)
2,"C[C@H](CCC(=O)O)[C@H]1CC[C@H]2[C@@H]3[C@H](O)C[C@@H]4C[C@H](O)CC[C@]4(C)[C@H]3CC[C@]12C [CDCA, chenodeoxychloic acid]",◯ (those having solubility of 0.05 g/L or more but less than 5 g/L and those miscible with a solvent for dye solution were labeled as “∘” with good dissolving property)
3,CCCCOc1ccc(-c2ccc(N(c3ccc(-c4ccc(C=C(C#N)C(=O)O)s4)cc3)c3ccc(-c4ccc(OCCCC)cc4OCCCC)cc3)cc2)c(OCCCC)c1 [D35],Δ (those having the solubility of less than 0.05 g/L were labeled as “Δ” with fair dissolving property)
4,"CC(C)(C)CCP(=O)(O)CCC(C)(C)C [DINHOP, bis-(3,3-dimethyl-butyl)-phosphinic acid]",⊙ (those dissolved at 5 g/L or more and those fully miscible with a solvent for dye solution were labeled as “⊙” with excellent dissolving property)
5,"CCO [Ethanol, ethanol]",⊙ (those dissolved at 5 g/L or more and those fully miscible with a solvent for dye solution were labeled as “⊙” with excellent dissolving property)

# Same assay, conditions: 1 mg (solvents: 1 mL) in 1 mL hexane, 25° C.
row,SMILES,dissolving property in Hexane
1,"CC#N [Acetonitrile, acetonitrile]",⊙ (those dissolved at 5 g/L or more and those fully miscible with a solvent for dye solution were labeled as “⊙” with excellent dissolving property)
2,"C[C@H](CCC(=O)O)[C@H]1CC[C@H]2[C@@H]3[C@H](O)C[C@@H]4C[C@H](O)CC[C@]4(C)[C@H]3CC[C@]12C [CDCA, chenodeoxychloic acid]",◯ (those having solubility of 0.05 g/L or more but less than 5 g/L and those miscible with a solvent for dye solution were labeled as “∘” with good dissolving property)
3,CCCCOc1ccc(-c2ccc(N(c3ccc(-c4ccc(C=C(C#N)C(=O)O)s4)cc3)c3ccc(-c4ccc(OCCCC)cc4OCCCC)cc3)cc2)c(OCCCC)c1 [D35],Δ (those having the solubility of less than 0.05 g/L were labeled as “Δ” with fair dissolving property)
4,"CC(C)(C)CCP(=O)(O)CCC(C)(C)C [DINHOP, bis-(3,3-dimethyl-butyl)-phosphinic acid]",⊙ (those dissolved at 5 g/L or more and those fully miscible with a solvent for dye solution were labeled as “⊙” with excellent dissolving property)
5,"CCO [Ethanol, ethanol]",⊙ (those dissolved at 5 g/L or more and those fully miscible with a solvent for dye solution were labeled as “⊙” with excellent dissolving property)

# Same assay, conditions: 1 mg (solvents: 1 mL) in 1 mL isoamyl ether, 25° C.
row,SMILES,dissolving property in Isoamyl ether
1,"CC#N [Acetonitrile, acetonitrile]",⊙ (those dissolved at 5 g/L or more and those fully miscible with a solvent for dye solution were labeled as “⊙” with excellent dissolving property)
2,"C[C@H](CCC(=O)O)[C@H]1CC[C@H]2[C@@H]3[C@H](O)C[C@@H]4C[C@H](O)CC[C@]4(C)[C@H]3CC[C@]12C [CDCA, chenodeoxychloic acid]",Δ (those having the solubility of less than 0.05 g/L were labeled as “Δ” with fair dissolving property)
3,CCCCOc1ccc(-c2ccc(N(c3ccc(-c4ccc(C=C(C#N)C(=O)O)s4)cc3)c3ccc(-c4ccc(OCCCC)cc4OCCCC)cc3)cc2)c(OCCCC)c1 [D35],Δ (those having the solubility of less than 0.05 g/L were labeled as “Δ” with fair dissolving property)
4,"CC(C)(C)CCP(=O)(O)CCC(C)(C)C [DINHOP, bis-(3,3-dimethyl-butyl)-phosphinic acid]",⊙ (those dissolved at 5 g/L or more and those fully miscible with a solvent for dye solution were labeled as “⊙” with excellent dissolving property)
5,"CCO [Ethanol, ethanol]",⊙ (those dissolved at 5 g/L or more and those fully miscible with a solvent for dye solution were labeled as “⊙” with excellent dissolving property)

# Same assay, conditions: 1 mg (solvents: 1 mL) in 1 mL methyl propyl ether, 25° C.
row,SMILES,dissolving property in Methyl propyl ether
1,"CC#N [Acetonitrile, acetonitrile]",⊙ (those dissolved at 5 g/L or more and those fully miscible with a solvent for dye solution were labeled as “⊙” with excellent dissolving property)
2,"C[C@H](CCC(=O)O)[C@H]1CC[C@H]2[C@@H]3[C@H](O)C[C@@H]4C[C@H](O)CC[C@]4(C)[C@H]3CC[C@]12C [CDCA, chenodeoxychloic acid]",⊙ (those dissolved at 5 g/L or more and those fully miscible with a solvent for dye solution were labeled as “⊙” with excellent dissolving property)
3,CCCCOc1ccc(-c2ccc(N(c3ccc(-c4ccc(C=C(C#N)C(=O)O)s4)cc3)c3ccc(-c4ccc(OCCCC)cc4OCCCC)cc3)cc2)c(OCCCC)c1 [D35],⊙ (those dissolved at 5 g/L or more and those fully miscible with a solvent for dye solution were labeled as “⊙” with excellent dissolving property)
4,"CC(C)(C)CCP(=O)(O)CCC(C)(C)C [DINHOP, bis-(3,3-dimethyl-butyl)-phosphinic acid]",⊙ (those dissolved at 5 g/L or more and those fully miscible with a solvent for dye solution were labeled as “⊙” with excellent dissolving property)
5,"CCO [Ethanol, ethanol]",⊙ (those dissolved at 5 g/L or more and those fully miscible with a solvent for dye solution were labeled as “⊙” with excellent dissolving property)

# Same assay, conditions: 1 mg (solvents: 1 mL) in 1 mL octane, 25° C.
row,SMILES,dissolving property in Octane
1,"CC#N [Acetonitrile, acetonitrile]",⊙ (those dissolved at 5 g/L or more and those fully miscible with a solvent for dye solution were labeled as “⊙” with excellent dissolving property)
2,"C[C@H](CCC(=O)O)[C@H]1CC[C@H]2[C@@H]3[C@H](O)C[C@@H]4C[C@H](O)CC[C@]4(C)[C@H]3CC[C@]12C [CDCA, chenodeoxychloic acid]",Δ (those having the solubility of less than 0.05 g/L were labeled as “Δ” with fair dissolving property)
3,CCCCOc1ccc(-c2ccc(N(c3ccc(-c4ccc(C=C(C#N)C(=O)O)s4)cc3)c3ccc(-c4ccc(OCCCC)cc4OCCCC)cc3)cc2)c(OCCCC)c1 [D35],Δ (those having the solubility of less than 0.05 g/L were labeled as “Δ” with fair dissolving property)
4,"CC(C)(C)CCP(=O)(O)CCC(C)(C)C [DINHOP, bis-(3,3-dimethyl-butyl)-phosphinic acid]",⊙ (those dissolved at 5 g/L or more and those fully miscible with a solvent for dye solution were labeled as “⊙” with excellent dissolving property)
5,"CCO [Ethanol, ethanol]",⊙ (those dissolved at 5 g/L or more and those fully miscible with a solvent for dye solution were labeled as “⊙” with excellent dissolving property)

# Same assay, conditions: 1 mg (solvents: 1 mL) in 1 mL pentane, 25° C.
row,SMILES,dissolving property in Pentane
1,"CC#N [Acetonitrile, acetonitrile]",⊙ (those dissolved at 5 g/L or more and those fully miscible with a solvent for dye solution were labeled as “⊙” with excellent dissolving property)
2,"C[C@H](CCC(=O)O)[C@H]1CC[C@H]2[C@@H]3[C@H](O)C[C@@H]4C[C@H](O)CC[C@]4(C)[C@H]3CC[C@]12C [CDCA, chenodeoxychloic acid]",◯ (those having solubility of 0.05 g/L or more but less than 5 g/L and those miscible with a solvent for dye solution were labeled as “∘” with good dissolving property)
3,CCCCOc1ccc(-c2ccc(N(c3ccc(-c4ccc(C=C(C#N)C(=O)O)s4)cc3)c3ccc(-c4ccc(OCCCC)cc4OCCCC)cc3)cc2)c(OCCCC)c1 [D35],Δ (those having the solubility of less than 0.05 g/L were labeled as “Δ” with fair dissolving property)
4,"CC(C)(C)CCP(=O)(O)CCC(C)(C)C [DINHOP, bis-(3,3-dimethyl-butyl)-phosphinic acid]",⊙ (those dissolved at 5 g/L or more and those fully miscible with a solvent for dye solution were labeled as “⊙” with excellent dissolving property)
5,"CCO [Ethanol, ethanol]",⊙ (those dissolved at 5 g/L or more and those fully miscible with a solvent for dye solution were labeled as “⊙” with excellent dissolving property)

# Same assay, conditions: 1 mg (solvents: 1 mL) in 1 mL t-butyl methyl ether, 25° C.
row,SMILES,dissolving property in t-Butyl methyl ether
1,"CC#N [Acetonitrile, acetonitrile]",⊙ (those dissolved at 5 g/L or more and those fully miscible with a solvent for dye solution were labeled as “⊙” with excellent dissolving property)
2,"C[C@H](CCC(=O)O)[C@H]1CC[C@H]2[C@@H]3[C@H](O)C[C@@H]4C[C@H](O)CC[C@]4(C)[C@H]3CC[C@]12C [CDCA, chenodeoxychloic acid]",⊙ (those dissolved at 5 g/L or more and those fully miscible with a solvent for dye solution were labeled as “⊙” with excellent dissolving property)
3,CCCCOc1ccc(-c2ccc(N(c3ccc(-c4ccc(C=C(C#N)C(=O)O)s4)cc3)c3ccc(-c4ccc(OCCCC)cc4OCCCC)cc3)cc2)c(OCCCC)c1 [D35],⊙ (those dissolved at 5 g/L or more and those fully miscible with a solvent for dye solution were labeled as “⊙” with excellent dissolving property)
4,"CC(C)(C)CCP(=O)(O)CCC(C)(C)C [DINHOP, bis-(3,3-dimethyl-butyl)-phosphinic acid]",⊙ (those dissolved at 5 g/L or more and those fully miscible with a solvent for dye solution were labeled as “⊙” with excellent dissolving property)
5,"CCO [Ethanol, ethanol]",⊙ (those dissolved at 5 g/L or more and those fully miscible with a solvent for dye solution were labeled as “⊙” with excellent dissolving property)

# Same assay, conditions: 1 mg (solvents: 1 mL) in 1 mL water, 25° C., for comparison
row,SMILES,dissolving property in Water
1,"CC#N [Acetonitrile, acetonitrile]",⊙ (those dissolved at 5 g/L or more and those fully miscible with a solvent for dye solution were labeled as “⊙” with excellent dissolving property)
2,"CC(C)(C)CCP(=O)(O)CCC(C)(C)C [DINHOP, bis-(3,3-dimethyl-butyl)-phosphinic acid]",Δ (those having the solubility of less than 0.05 g/L were labeled as “Δ” with fair dissolving property)
3,"CCO [Ethanol, ethanol]",⊙ (those dissolved at 5 g/L or more and those fully miscible with a solvent for dye solution were labeled as “⊙” with excellent dissolving property)

# Same assay, conditions: isoamyl ether (C5H11—O—C5H11)
row,"dissolving property of isoamyl ether, in words",SMILES
1,slightly inferior dissolving property,"C[C@H](CCC(=O)O)[C@H]1CC[C@H]2[C@@H]3[C@H](O)C[C@@H]4C[C@H](O)CC[C@]4(C)[C@H]3CC[C@]12C [CDCA, chenodeoxychloic acid]"

# Same assay, conditions: octane with a carbon number of 8
row,"dissolving property of octane, in words",SMILES
1,poor dissolving property,"C[C@H](CCC(=O)O)[C@H]1CC[C@H]2[C@@H]3[C@H](O)C[C@@H]4C[C@H](O)CC[C@]4(C)[C@H]3CC[C@]12C [CDCA, chenodeoxychloic acid]"
